# In US20210353639A1, “MAST1 AND USES FOR DIAGNOSING AND TREATING CANCER” (EMORY UNIVERSITY, priority 2018, published 2021):
# Entries after “also recorded” stand apart in the source; their conditions may differ.
# What was measured:
# MAST1 = target: T1, MAST1 (Homo sapiens, UniProt Q9Y2H9); experiment: MAST1 in vitro kinase assay (purified GST-MAST1, ADP-Glo); format: biochemical; conditions: 10 μM drugs incubated with purified GST-MAST1
# T1 construct: GST; made in house; host or cells: 293T
# Experimental: GST-MAST1 variants were enriched from 293T and kinase activity was assessed by ADP-Glo Kinase assay using myelin basic protein (MBP) as a substrate.
# 10 μM drugs were incubated with purified GST-MAST1 and applied to the in vitro kinase assay.
# FIG. 7G show data on the effect of lestaurtinib on MAST1 activity at a range of ATP concentrations.
# MEK1-cRaf complex = target: T2, MEK1-cRaf complex (Homo sapiens, UniProt P04049+Q02750); experiment: In vitro MEK1-cRaf dissociation, purified complex from KB-3-1 cells; format: biochemical
# T2 construct: endogenous in cells; host or cells: KB-3-1
# T2 sequence (Q02750 whole entry): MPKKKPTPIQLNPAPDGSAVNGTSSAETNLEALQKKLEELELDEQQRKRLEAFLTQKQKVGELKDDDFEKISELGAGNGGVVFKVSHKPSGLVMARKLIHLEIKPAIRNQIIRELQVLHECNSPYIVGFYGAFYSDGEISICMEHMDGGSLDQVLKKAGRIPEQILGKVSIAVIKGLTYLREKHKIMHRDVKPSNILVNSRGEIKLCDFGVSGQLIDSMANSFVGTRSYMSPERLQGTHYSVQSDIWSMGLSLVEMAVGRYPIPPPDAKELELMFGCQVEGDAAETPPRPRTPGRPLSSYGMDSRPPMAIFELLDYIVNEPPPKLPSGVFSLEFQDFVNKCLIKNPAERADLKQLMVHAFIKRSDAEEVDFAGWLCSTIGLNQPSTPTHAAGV
# T2 sequence (P04049 whole entry): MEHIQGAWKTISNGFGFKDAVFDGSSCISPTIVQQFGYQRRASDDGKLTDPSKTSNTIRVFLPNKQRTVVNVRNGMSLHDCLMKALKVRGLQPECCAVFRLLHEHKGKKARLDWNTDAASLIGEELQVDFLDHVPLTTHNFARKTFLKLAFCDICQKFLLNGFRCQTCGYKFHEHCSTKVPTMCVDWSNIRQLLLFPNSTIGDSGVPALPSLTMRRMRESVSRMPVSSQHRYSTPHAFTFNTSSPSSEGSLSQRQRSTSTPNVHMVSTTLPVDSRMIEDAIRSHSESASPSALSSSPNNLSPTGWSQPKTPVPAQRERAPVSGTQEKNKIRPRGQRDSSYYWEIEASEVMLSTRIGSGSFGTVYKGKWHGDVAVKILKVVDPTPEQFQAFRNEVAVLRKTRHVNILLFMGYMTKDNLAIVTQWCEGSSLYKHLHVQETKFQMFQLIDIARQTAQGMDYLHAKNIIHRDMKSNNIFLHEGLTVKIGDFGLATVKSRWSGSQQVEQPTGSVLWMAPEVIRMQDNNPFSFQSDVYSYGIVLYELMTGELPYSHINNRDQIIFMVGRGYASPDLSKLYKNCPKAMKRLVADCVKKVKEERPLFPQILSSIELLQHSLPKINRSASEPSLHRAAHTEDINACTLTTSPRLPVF
# Text: Samples were collected at different time points and subjected to immunoblotting. Density analysis of relative amount of cRaf bound to MEK1 from three biological replicates are shown.
# cRaf-MEK1 = target: T3, cRaf-MEK1 (Homo sapiens, UniProt P04049+Q02750); experiment: cRaf-MEK1 dissociation in cancer cells (MEK1 immunoprecipitation); format: cell-based
# T3 construct: endogenous in cells; host or cells: KB-3-1 and other cancer cell lines
# T3 sequence (Q02750 whole entry): as the sequence (Q02750 whole entry) above
# T3 sequence (P04049 whole entry): as the sequence (P04049 whole entry) above
# Experimental: KB-3-1 cells were treated with different compounds as indicated, followed by MEK1 immunoprecipitation and immunoblotting.
# [1] = Cisplatin sensitivity / cell viability with MAST1 inhibitors in KB-3-1 cells; format: cell-based; conditions: human, read-out: attenuation of cell viability when treated alone
# 212LN cells = experiment: Combination cell viability, Combination Index by CompuSyn, 212LN; format: cell-based, human; conditions: lestaurtinib in combination with cisplatin
# Text: (§1) Combination Index (CI) value for cell viability was obtained by CompuSyn.
# [2] = Tolerability of lestaurtinib and cisplatin dosage (body weight, histopathology, hematopoietic properties); format: in vivo, mice; conditions: 20 mg/kg lestaurtinib and 5 mg/kg cisplatin
# KB-3-1 cells = experiment: Combination cell viability, Combination Index by CompuSyn, KB-3-1; format: cell-based, human; conditions: lestaurtinib in combination with cisplatin
# Text: as §1
# TKO-002 = experiment: Combination cell viability, SCLC patient-derived tumor TKO-002; format: cell-based, human; conditions: combination of lestaurtinib and cisplatin, platinum-refractory SCLC TKO-002
# Text: CI value for synergistic effect is shown.
# Lung PDX (Pt-9 tumor) = experiment: Tumor growth in lung PDX mice (Pt-9 tumor), lestaurtinib or trametinib with cisplatin; format: in vivo; conditions: in combination with cisplatin (5 mg/kg i.p. twice a week); lestaurtinib 20 mg/kg i.p. 5 times a week, trametinib 1 mg/kg oral daily
# T1 sequence (Q9Y2H9 whole entry): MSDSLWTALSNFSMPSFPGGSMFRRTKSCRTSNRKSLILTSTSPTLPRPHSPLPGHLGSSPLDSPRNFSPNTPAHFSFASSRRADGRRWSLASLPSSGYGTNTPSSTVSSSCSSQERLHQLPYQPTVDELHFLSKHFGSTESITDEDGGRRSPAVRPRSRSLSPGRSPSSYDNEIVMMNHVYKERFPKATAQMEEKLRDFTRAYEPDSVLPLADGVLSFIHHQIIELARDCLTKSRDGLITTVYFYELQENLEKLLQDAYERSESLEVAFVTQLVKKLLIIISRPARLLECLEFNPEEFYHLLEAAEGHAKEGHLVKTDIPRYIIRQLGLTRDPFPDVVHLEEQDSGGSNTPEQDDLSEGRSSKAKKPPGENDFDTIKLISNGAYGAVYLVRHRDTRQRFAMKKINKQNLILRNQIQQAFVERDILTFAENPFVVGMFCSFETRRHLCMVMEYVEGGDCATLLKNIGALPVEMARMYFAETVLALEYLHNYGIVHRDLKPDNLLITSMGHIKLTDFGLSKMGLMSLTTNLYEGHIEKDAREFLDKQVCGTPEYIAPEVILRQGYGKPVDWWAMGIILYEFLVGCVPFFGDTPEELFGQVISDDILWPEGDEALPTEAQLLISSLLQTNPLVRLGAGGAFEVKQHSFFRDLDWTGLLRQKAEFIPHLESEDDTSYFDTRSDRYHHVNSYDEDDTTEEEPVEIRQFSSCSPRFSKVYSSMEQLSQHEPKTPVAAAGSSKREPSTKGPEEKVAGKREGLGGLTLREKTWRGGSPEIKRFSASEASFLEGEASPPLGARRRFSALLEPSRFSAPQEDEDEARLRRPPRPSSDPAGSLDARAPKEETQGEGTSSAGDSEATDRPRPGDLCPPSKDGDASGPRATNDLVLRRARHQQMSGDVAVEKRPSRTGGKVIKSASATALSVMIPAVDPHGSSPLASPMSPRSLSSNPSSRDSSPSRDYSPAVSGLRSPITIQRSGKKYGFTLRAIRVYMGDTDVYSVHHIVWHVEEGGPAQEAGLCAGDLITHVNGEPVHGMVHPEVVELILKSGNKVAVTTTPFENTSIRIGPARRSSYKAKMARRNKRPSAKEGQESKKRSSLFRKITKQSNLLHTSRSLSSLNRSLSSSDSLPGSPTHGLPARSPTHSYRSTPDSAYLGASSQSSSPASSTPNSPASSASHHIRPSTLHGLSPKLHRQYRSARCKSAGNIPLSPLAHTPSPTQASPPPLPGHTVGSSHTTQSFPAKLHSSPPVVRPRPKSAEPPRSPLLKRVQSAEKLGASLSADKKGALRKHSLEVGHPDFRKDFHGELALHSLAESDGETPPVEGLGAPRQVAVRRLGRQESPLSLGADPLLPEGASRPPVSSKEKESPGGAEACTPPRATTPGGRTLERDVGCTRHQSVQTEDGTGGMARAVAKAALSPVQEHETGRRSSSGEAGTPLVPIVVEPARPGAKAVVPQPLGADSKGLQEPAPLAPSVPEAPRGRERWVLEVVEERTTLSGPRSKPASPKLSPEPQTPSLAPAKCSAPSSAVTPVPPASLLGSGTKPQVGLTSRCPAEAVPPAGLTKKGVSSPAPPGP
smiles,measurement,setting,value
"Cc1[nH]c(C=C2C(=O)Nc3ccc(F)cc32)c(C)c1C(=O)NCC(O)CN1CCOCC1 (stereo not drawn) [SU14813, 5-((5-fluoro-2-oxo-1,2-dihydro-3H-indol-3-ylidene)methyl)-N-(2-hydroxy-3-morpholin-4-ylpropyl)-2,4-dimethyl-1H-pyrrole-3-carboxamide]",MAST1 activity in in vitro MAST1 kinase assay,MAST1,inhibited MAST1 activity in vitro
N#CC(=C(/N)Sc1ccccc1N)/C(C#N)=C(\N)Sc1ccccc1N [U0126],sensitization of cancer cells to cisplatin by MEK1 inhibitor,cancer cells,sensitized cancer cells to cisplatin
"COc1cc(Nc2c(C#N)cnc3cc(OCCCN4CCN(C)CC4)c(OC)cc23)c(Cl)cc1Cl [bosutinib, 4-[(2,4-Dichloro-5-methoxyphenyl)amino]-6-methoxy-7-[3-(4-methyl-1-piperazinyl)propoxy]-3-quinolinecarbonitrile]",MAST1 activity in in vitro MAST1 kinase assay,MAST1,inhibited MAST1 activity in vitro
N.N.[Cl][Pt][Cl] [cisplatin],time to dissociation of cRaf from MEK1,"MEK1-cRaf complex; 5 μg/ml cisplatin, time course",within one hour
same,dissociation of cRaf from MEK1 in vitro,"MEK1-cRaf complex; purified MEK1-cRaf complex, cisplatin 0-5 μg/ml for 2 hours",dissociates cRaf from MEK1 in a dose-dependent manner
same,dissociation of cRaf from MEK1 in diverse types of cancer cells,cRaf-MEK1; 5 μg/ml cisplatin for 24 hours,dissociates cRaf
"CN1CCN(c2ccc3[nH]c(-c4c(N)c5c(F)cccc5[nH]c4=O)nc3c2)CC1 [dovitinib, 4-amino-5-fluoro-3-(5-(4-methylpiperazin-1-yl)-1H-benzimidazol-2-yl)quinolin-2(1H)-one]",MAST1 activity in in vitro MAST1 kinase assay,MAST1,inhibited MAST1 activity in vitro
"C[C@]12O[C@H](C[C@]1(O)CO)n1c3ccccc3c3c4c(c5c6ccccc6n2c5c31)CNC4=O [lestaurtinib, 7-hydroxy-7-(hydroxymethyl)-8-methyl-5,6,7,8,13,14-hexahydro-15H-16-oxa-4b,8a,14-triaza-5,8-methanodibenzo[b,h]cycloocta[jkl]cyclopenta[e]-as-indacen-15-one]","cytotoxicity at 48 h, 100 nM",[1],< 20%
same,combination index (CI) for cell viability,212LN cells,0.257
same,"changes in body weight, histopathology, or hematopoietic properties",[2],did not induce significant changes
same,combination index (CI) for cell viability,KB-3-1 cells,0.256
same,CI value for cell viability,TKO-002,0.57
CC(=O)O[C@H]1C(=O)[C@@]2(C)[C@H]([C@H](OC(=O)c3ccccc3)[C@]3(O)C[C@H](OC(=O)[C@H](O)[C@@H](NC(=O)c4ccccc4)c4ccccc4)C(C)=C1C3(C)C)[C@]1(OC(C)=O)CO[C@@H]1C[C@@H]2O [paclitaxel],dissociation of cRaf-MEK1 induced by DNA damaging agents and cytotoxic drugs,cRaf-MEK1; KB-3-1 cells,not
"CN[C@@H]1C[C@H]2O[C@@](C)([C@@H]1OC)n1c3ccccc3c3c4c(c5c6ccccc6n2c5c31)C(=O)NC4 [staurosporine, 6-methoxy-5-methyl-7-methylamino-6,7,8,9,15,16-hexahydro-5H,14H-5,9-epoxy-4b,9a,15-triazadibenzo[b,h]cyclonona[1,2,3,4-jkl]cyclopenta[e]-as-indacen-14-one]",MAST1 activity in in vitro MAST1 kinase assay,MAST1,inhibited MAST1 activity in vitro
"CC(=O)Nc1cccc(-n2c(=O)n(C3CC3)c(=O)c3c(Nc4ccc(I)cc4F)n(C)c(=O)c(C)c32)c1 [trametinib, N-[3-[3-cyclopropyl-5-[(2-fluoro-4-iodophenyl)amino]-3,4,6,7-tetrahydro-6,8-dimethyl-2,4,7-trioxopyrido[4,3-d]pyrimidin-1(2H)-yl]phenyl]acetamide]",PDX tumor growth and proliferation,Lung PDX (Pt-9 tumor),attenuated PDX tumor growth and proliferation; also recorded: sensitizes cancer cells to cisplatin
